Reference: patent US20100234381A1, “BIOMARKERS AND METHODS FOR DETERMINING SENSITIVITY TO VASCULAR ENDOTHELIAL GROWTH FACTOR RECEPTOR-2 MODULATORS” (Bristol-Myers Squibb Company, priority 2007, published 2010)

Key:
VEGF gene expression = assay: VEGF gene expression, AFFYMETRIX human arrays
collagen IV (CIV) = assay: Plasma collagen IV (CIV) ELISA in patients; format: in vivo, human; details: for reduction in median CIV levels: regardless of FGF-2 status
Method: Plasma collagen IV (CIV) was measured using an enzyme-linked immunosorbent assay (ELISA) kit obtained from Biotrin International, Ltd. (Dublin, Ireland). […] Per the manufacturer's kit insert and instructions, the kit standards, QCs and EDTA plasma patient samples were diluted with conjugate (anti-collagen IV mouse Fab′ conjugated to horseradish peroxidase, containing 30 mg/l Proclin 300 as a preservative). Diluted samples were incubated for 30 minutes in wells coated with a second anti-collagen IV antibody, and then washed 3 times with kit wash buffer (phosphate buffer with Tween 20 and proclin 300 as a preservative. Ready to use TMB substrate was added and incubated for 30 minutes. The reaction was stopped by the addition of 1M H2SO4. The absorbance at 450 nm using 630 nm as a reference was measured using a SPECTRAMAX® plate reader (Molecular Devices, Sunnyvale, Calif.). Softmax Pro 4.8 software was used to generate a 4-parameter logistic (4-PL) curve fit using the CIV kit standards.

[(1R),2S]-2-Aminopropionic acid 2-[4-(4-fluoro-2-methyl-1H-indol-5-yloxy)-5-methylpyrrolo[2,1-f][1,2,4]triazin-6-yloxy]-1-methylethyl ester [brivanib]
modulation of VEGF gene expression levels (VEGF gene expression): modulated VEGF gene expression levels
reduction in median CIV levels (collagen IV (CIV); 320 mg, after 8 days): 2.6%
reduction in median CIV levels (collagen IV (CIV); 320 mg, after 26 days): 2.3%
reduction in median CIV levels (collagen IV (CIV); 800 mg, after 8 days): 24%
reduction in median CIV levels (collagen IV (CIV); 800 mg, after 26 days): 31%
COL IV change from baseline (%) (Day 26) (n = 42) (collagen IV (CIV); FGF2+ patients (n = 24)): −30%
COL IV change from baseline (%) (Day 26) (n = 42) (collagen IV (CIV); FGF2− patients (n = 19)): −16%
median decrease of CIV levels from baseline (collagen IV (CIV); patients with FGF2(−) tumors, after 8 days): 4.9%
median decrease of CIV levels from baseline (collagen IV (CIV); patients with FGF-2(+) tumors, after 8 days): 16.1%
median reduction from baseline in CIV levels (collagen IV (CIV); patients with FGF-2(+) tumors, after 26 days): 30.7%
median reduction from baseline in CIV levels (collagen IV (CIV); patients with FGF-2(−) tumors, after 26 days): 4.3%
